Measured values: patent US8658638B2, “Mineralocorticoid receptor antagonist and methods of use” (priority 2009, dated 2014)

Experiments:
human MR = biological target: T1, human MR (Homo sapiens, UniProt P08235); assay: hMR competitive antagonist assay (Schild analysis); assay type: cell-based; settings: Schild analysis versus aldosterone, HEK293 transfected with human MR
T1 construct: expressed in transfected cells; host or cells: HEK293
T1 sequence (P08235 1-984): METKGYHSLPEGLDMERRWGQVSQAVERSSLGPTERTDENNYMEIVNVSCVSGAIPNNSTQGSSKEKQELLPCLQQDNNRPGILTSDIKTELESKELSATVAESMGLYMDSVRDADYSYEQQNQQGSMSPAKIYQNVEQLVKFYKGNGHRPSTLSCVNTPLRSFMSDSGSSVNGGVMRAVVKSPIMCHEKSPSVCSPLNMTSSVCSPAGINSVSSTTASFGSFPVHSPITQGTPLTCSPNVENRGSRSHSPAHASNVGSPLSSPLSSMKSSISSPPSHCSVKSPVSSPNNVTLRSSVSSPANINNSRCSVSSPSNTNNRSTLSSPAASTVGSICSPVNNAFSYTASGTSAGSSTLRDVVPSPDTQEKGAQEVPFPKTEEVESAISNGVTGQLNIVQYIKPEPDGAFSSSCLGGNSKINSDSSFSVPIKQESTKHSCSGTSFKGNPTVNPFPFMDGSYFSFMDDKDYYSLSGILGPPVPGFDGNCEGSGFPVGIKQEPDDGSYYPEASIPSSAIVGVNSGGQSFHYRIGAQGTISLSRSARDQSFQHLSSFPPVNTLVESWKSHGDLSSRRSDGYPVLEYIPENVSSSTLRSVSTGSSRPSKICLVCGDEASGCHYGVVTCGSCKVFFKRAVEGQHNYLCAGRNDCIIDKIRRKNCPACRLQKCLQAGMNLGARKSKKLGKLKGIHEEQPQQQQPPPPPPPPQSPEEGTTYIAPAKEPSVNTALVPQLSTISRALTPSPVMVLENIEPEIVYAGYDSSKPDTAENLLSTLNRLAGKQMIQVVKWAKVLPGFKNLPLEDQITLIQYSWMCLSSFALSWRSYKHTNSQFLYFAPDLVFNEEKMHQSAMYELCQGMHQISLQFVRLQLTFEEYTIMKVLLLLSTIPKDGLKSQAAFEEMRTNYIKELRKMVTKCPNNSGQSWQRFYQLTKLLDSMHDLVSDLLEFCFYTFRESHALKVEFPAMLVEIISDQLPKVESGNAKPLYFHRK
Source text: Human embryonic kidney HEK293 cells are transfected with human MR using the same transfection reagents, plasmids, promoters, reporter constructs, buffers, and procedures as described above for the Nuclear Hormone Receptor Panel Screen.

[1] = biological target: T2, human AR (androgen receptor) (Homo sapiens, UniProt P10275); assay: Steroid nuclear hormone receptor binding assay, AR; settings: [3H]-methyltrienolone, HEK293 lysate overexpressing human AR
T2 construct: expressed in transfected cells; host or cells: HEK293 (293-AR lysate)
T2 sequence (P10275 1-920): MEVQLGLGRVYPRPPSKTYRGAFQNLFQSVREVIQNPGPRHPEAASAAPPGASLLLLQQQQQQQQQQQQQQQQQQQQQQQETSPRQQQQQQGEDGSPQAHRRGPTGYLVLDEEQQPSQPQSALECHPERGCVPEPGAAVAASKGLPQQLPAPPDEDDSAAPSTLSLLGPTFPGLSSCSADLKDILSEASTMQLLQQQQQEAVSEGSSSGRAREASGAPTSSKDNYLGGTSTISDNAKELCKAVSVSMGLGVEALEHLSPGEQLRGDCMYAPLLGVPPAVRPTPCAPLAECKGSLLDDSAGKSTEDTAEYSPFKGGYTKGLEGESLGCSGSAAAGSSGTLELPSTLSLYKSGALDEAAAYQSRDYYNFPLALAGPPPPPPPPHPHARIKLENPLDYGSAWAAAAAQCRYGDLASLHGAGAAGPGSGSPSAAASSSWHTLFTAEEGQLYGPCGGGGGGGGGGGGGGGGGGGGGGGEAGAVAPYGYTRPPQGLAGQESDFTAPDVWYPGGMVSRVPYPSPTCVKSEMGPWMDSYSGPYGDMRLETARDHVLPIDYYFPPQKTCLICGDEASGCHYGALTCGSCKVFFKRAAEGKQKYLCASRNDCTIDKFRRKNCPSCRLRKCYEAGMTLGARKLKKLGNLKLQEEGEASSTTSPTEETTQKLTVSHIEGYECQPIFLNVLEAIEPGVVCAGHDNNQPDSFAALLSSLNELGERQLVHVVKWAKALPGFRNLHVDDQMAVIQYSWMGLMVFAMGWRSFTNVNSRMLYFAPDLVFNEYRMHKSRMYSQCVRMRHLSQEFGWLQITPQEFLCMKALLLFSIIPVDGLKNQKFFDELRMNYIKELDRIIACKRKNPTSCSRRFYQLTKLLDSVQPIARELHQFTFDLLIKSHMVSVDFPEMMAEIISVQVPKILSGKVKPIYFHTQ
Experimental: Cell lysates from human embryonic kidney HEK293 cells overexpressing human MR (mineralocorticoid receptor), GR (glucocorticoid receptor), AR (androgen receptor), or PR (progesterone receptor) are used for receptor-ligand competition binding assays to determine Ki values.
Briefly, steroid receptor competition binding assays are run in a buffer containing 20 mM HEPES buffer (pH=7.6), 0.2 mM EDTA, 75 mM NaCl, 1.5 mM MgCl2, 20% glycerol, 20 mM sodium molybdate, 0.2 mM DTT (dithiothreitol), 20 μg/mL aprotinin and 20 μg/mL leupeptin (assay buffer). Typically, steroid receptor binding assays include radio-labeled ligands, such as 0.25 nM [^3H]-aldosterone for MR binding, 0.7 nM [^3H]-dexamethasone for GR binding, 0.36 nM [^3H]-methyltrienolone for AR binding, and 0.29 nM [^3H]-methyltrienolone for PR binding, and either 20 μg 293-MR lysate, 20 μg 293-GR lysate, 22 μg 293-AR lysate, or 40 μg 293-PR lysate per well. Assays are typically run in 96-well format. Competing test compounds are added at various concentrations ranging from about 0.01 nM to 10 μM. Non-specific binding is determined in the presence of 500 nM aldosterone for MR binding, 500 nM dexamethasone for GR binding, or 500 nM methyltrienolone for AR and PR binding. […] After an incubation of 2 hours, plates are read in a Wallac Microbeta counter. […]

Kb (human MR): ~5.1 nM
Ki [1]: ~1170 nM
Structure (SMILES): O=c1[nH]c2cc(/C=C3\c4ccccc4COc4cc(F)ccc43)ccc2n1[C@@H]1C[C@@H]2COCCN2C1 [Compound (I), 5-((E)-(3-fluorodibenzo[b,e]oxepin-11(6H)-ylidene)methyl)-1-((7R,8aR)-hexahydro-1H-pyrrolo[2,1-c][1,4]oxazin-7-yl)-1H-benzo[d]imidazol-2(3H)-one]
